Test results as given in patent US5650525A, “1,2-dioxetane derivatives, intermediates for syntheses thereof and methods of producing the intermediates” (priority 1994, dated 1997).
Structures can show the parent of a compound that is named as a salt.

How the values were obtained:
[1] = Thermal stability: half-life by 1H NMR in methanol-d4 heated at 60° C. (Test Examples 1-2, 2-2); format: physicochemical; settings: for half-life at 60° C.: 1 mg in methanol-d4 (0.35 ml), 1H NMR at intervals of 2 to 3 hours; for thermal stability compared with AMPPD: methanol-d4, 60° C., versus AMPPD
Description: 1 mg of 3-isopropoxy-4,4-diisopropyl-3-(3'-phosphoryloxy)phenyl-1,2-dioxetane disodium salt (Compound [40]) synthesized in Example 26 was dissolved in methanol-d4 (0.35 ml), and the solution was heated at 60° C. in a thermostated bath, so that the solution was subjected to ^1 HNMR measurement at intervals of 2 to 3 hours.
In the above ^1 HNMR measurement, Compound [40] was replaced by the commercially available AMPPD (3-(2'-spiroadamantan)-4-methoxy-4-(3"-phosphoryloxy)phenyl-1,2-dioxetane disodium salt), whereby the half-life of AMPPD at 60° C. was also calculated in the same manner as mentioned above.
1 mg of 3-t-butyl-4-methoxy-3-neopentyloxymethyl-4-(3'-phosphoryloxy)phenyl-1,2-dioxetane disodium salt (Compound [86]) synthesized in Example 66 was dissolved in methanol-d4 (0.35 ml), and the solution was heated at 60° C. in a thermostated bath, so that the solution was subjected to ^1 HNMR measurement at intervals of 2 to 3 hours.

alkaline phosphatase [2] = experiment: Chemiluminescence with alkaline phosphatase, Test Example 1-1 (FIG. 1); format: biochemical; settings: 0.2 mg/ml, 0.1M diethanolamine/HCl buffer pH 10.0, 37° C.; versus AMPPD
Description: 3-isopropoxy-4,4-diisopropyl-3-(3'-phosphoryloxy)phenyl-1,2-dioxetane disodium salt (Compound [40]) synthesized in Example 26 was dissolved in a 0.1M diethanolamine/hydrochloric acid buffer solution (pH 10.0) containing 1 mM magnesium chloride and 0.05% sodium azide, in such an amount that the concentration of the dissolved Compound [40]) was 0.2 mg/ml, and the solution was stirred.
(§1) 300 μl of this solution was placed in a cartridge for assay and incubated for 90 minutes.
(§2) After this incubation, 20 μl of an enzyme solution was added to the above solution, which enzyme solution was prepared by diluting an alkaline phosphatase solution for enzyme immunoassay (made by Boehringer Mannheim Co., Ltd.) (3 mg/0.3 ml) 154 times and then 10^5 times with a 50 mM Tris/cl buffer solution (pH 7.2) containing 0.15M sodium chloride, 1 mM magnesium chloride, 0.1 mM zinc chloride and 0.1% sodium azide.
(§3) The luminescence of the above diluted enzyme solution was measured at 37° C. at regular time intervals.
(§4) For comparison, the luminescence of a commercially available AMPPD (3-(2'-spiroadamantan)-4-methoxy-4-(3"-phosphoryloxy)phenyl-1,2-dioxetane disodium salt was measured under the same conditions as mentioned above, by replacing the Compound [40] with AMPPD in accordance with the above-mentioned procedure.

alkaline phosphatase [3] = experiment: Chemiluminescence with alkaline phosphatase in presence of quaternary ammonium salt (BDMG), Test Example 2-1 (FIG. 2); format: biochemical; settings: 0.2 mg/ml, 0.1M diethanolamine/HCl buffer pH 10.0 with 0.4 mg/ml BDMG, 37° C.; versus AMPPD
Description: 3-t-butyl-4-methoxy-3-neopentyloxymethyl-4-(3'-phosphoryloxy)phenyl-1,2-dioxetane disodium salt (Compound [86]) synthesized in Example 66 was dissolved in a 0.1M diethanolamine/hydrochloric acid buffer solution (pH 10.0 ) containing 0.4 mg/ml of quaternary ammonium salt (BDMG), 1 mM magnesium chloride and 0.05% sodium azide, in such an amount that the concentration of the dissolved Compound [86] was 0.2 mg/ml, and the solution was stirred.
as §1
as §2, with “times” for “times and then 10^5 times”
as §3
as §4, with “salt)” for “salt”, “[86]” for “[40]”

| Structure (SMILES) | half-life at 60° C. [1] | thermal stability compared with AMPPD [1] | chemiluminescence intensity compared with AMPPD (alkaline phosphatase [2]) | chemiluminescence intensity compared with AMPPD (alkaline phosphatase [3]) |
| --- | --- | --- | --- | --- |
| CC(C)OC1(c2cccc(OP(=O)(O)O)c2)OOC1(C(C)C)C(C)C (stereo not shown) [Compound [40], 3-isopropoxy-4,4-diisopropyl-3-(3'-phosphoryloxy)phenyl-1,2-dioxetane disodium salt] | 14.3 h | thermally more stable | higher intensity |  |
| COC1(c2cccc(OP(=O)(O)O)c2)OOC1(COCC(C)(C)C)C(C)(C)C (stereo not shown) [Compound [86], 3-t-butyl-4-methoxy-3-neopentyloxymethyl-4-(3'-phosphoryloxy)phenyl-1,2-dioxetane disodium salt] | 18.6 h | thermally more stable |  | higher intensity |
| COC1(c2cccc(OP(=O)(O)O)c2)OOC12C1CC3CC(C1)CC2C3 (stereo not shown) [AMPPD, 3-(2'-spiroadamantan)-4-methoxy-4-(3"-phosphoryloxy)phenyl-1,2-dioxetane disodium salt, reference compound] | 5.5 h |  |  |  |
